How the values were obtained:
Assay type in all cases: functional, cell-based
HL-60 [1] = test: Cytotoxicity against human HL60 cells after 48 hrs by MTT assay; conditions: HL-60, 48 h
K562 [2] = test: Cytotoxicity against human K562 cells after 48 hrs by MTT assay; conditions: K562, 48 h
HeLa = test: Cytotoxicity against human HeLa cells by MTT assay
HT-29 = test: Cytotoxicity against human HT-29 cells after 48 hrs by MTS assay; conditions: HT-29, 48 h
HL-60 [3] = test: Cytotoxicity against human HL60 cells after 48 hrs by MTS assay; conditions: HL-60, 48 h
MDA-MB-231 = test: Cytotoxicity against human MDA-MB-231 cells after 48 hrs by MTT assay; conditions: MDA-MB-231, 48 h
Bel-7402 [4] = test: Cytotoxicity against human Bel7402 cells after 48 hrs by MTT assay; conditions: Bel-7402, 48 h
MCF7 [5] = test: Cytotoxicity against human MCF7 cells after 48 hrs by MTS assay; conditions: MCF7, 48 h
HL-60 [6] = test: Cytotoxicity against human HL60 cells after 48 to 72 hrs by MTT assay
A549 = test: Cytotoxicity against human A549 cells after 48 hrs by MTS assay; conditions: A549, 48 h
Bel-7402 [7] = test: Cytotoxicity against human Bel7402 cells by MTT assay
HepG2 [8] = test: Cytotoxicity against human HepG2 cells after 44 hrs by MTT assay; conditions: HepG2, 44 h
BGC-823 = test: Cytotoxicity against human BGC823 cells after 48 hrs by MTT assay; conditions: BGC-823, 48 h
Bel-7402 [9] = test: Cytotoxicity against human Bel7402 cells after 44 hrs by MTT assay; conditions: Bel-7402, 44 h
KB = test: Cytotoxicity against human KB cells after 48 hrs by MTT assay
MCF7 [10] = test: Cytotoxicity against human MCF7 cells after 24 hrs by MTT assay; conditions: MCF7, 24 h
K562 [11] = test: Cytotoxicity against human K562 cells after 48 to 72 hrs by MTT assay
HepG2 [12] = test: Cytotoxicity against human HepG2 cells by MTT assay
HepG2 [13] = test: Cytotoxicity against human HepG2 cells after 48 hrs by BrDU-incorporation based ELISA; conditions: HepG2, 48 h

How did the IC50 (HL-60 [1]) turn out when `COC1=CC(=O)C[C@@]2(OC)Oc3ccc(O)cc3C[C@@]12O` was run?
Its IC50 is 10.6 µM.

`CC(C)c1cc2c(cc1O)[C@@]1(C)CCCC(C)(C)[C@@H]1CC2=O` [SUGIOL] was tested. Which IC50 (K562 [2]) did it give?
Its IC50 is 6.7 µM.

How did the IC50 (HeLa) turn out when `CCn1c2ccccc2c2cc(C(=O)OC)ncc21` was run?
The IC50 was 17 µM.

How did the IC50 (HT-29) turn out when `COc1ccc(-c2nc(Cn3cc(CN4C(=O)c5cccc6cccc(c56)C4=O)nn3)cc3c2[nH]c2ccccc23)cc1OC` was run?
The IC50 was 7.46 µM.

Which IC50 (K562 [2]) does the source give for `CCn1c2c(c3ccccc31)CCC(CN1CCOCC1)C2=O` (centres undefined) here?
The IC50 was 13.8 µM.

How did the IC50 (K562 [2]) turn out when `CN(C)CC1CCc2c(n(C)c3ccccc23)C1=O` (centres undefined) was run?
The IC50 was 17.3 µM.

`c1ccc2c(c1)ncn2CCCn1c2ccccc2c2ccccc21` was tested. Which IC50 (HL-60 [3]) did it give?
Its IC50 is 7.91 µM.

For `CC(=O)Oc1cc(OC(C)=O)c2c(c1)C(=O)c1cc(C)cc(OC(C)=O)c1C2=O` [EMODIN TRIACETATE], which IC50 (MDA-MB-231) is on record?
Its IC50 is 2.14 µM.

For `Cc1cc2ncn(CCCCCn3c4ccccc4c4ccccc43)c2cc1C`, which IC50 (HL-60 [3]) is on record?
The IC50 was 14.7 µM.

With `CC(C)=CCc1c(O)c(CC=C(C)C)c2oc3c(O)ccc(O)c3c(=O)c2c1O` [GARTANIN] as the compound, how does the IC50 (Bel-7402 [4]) read?
The IC50 was 7.78 µM.

How did the IC50 (MCF7 [5]) turn out when `c1ccc2c(c1)ncn2CCCCn1c2ccccc2c2ccccc21` was run?
The IC50 was 5.06 µM.

`CC(CO)c1cc2c(cc1O)[C@@]1(C)CCCC(C)(C)[C@@H]1CC2` (some centres undefined) was tested. Which IC50 (HL-60 [1]) did it give?
The IC50 was 16.2 µM.

For `COCCOCSc1nnc(-c2cccnc2)n1/N=C/c1c2ccccc2cc2ccccc12`, which IC50 (K562 [2]) is on record?
Its IC50 is 0.09 µM.

For `COc1cc(Cn2c3ccc(NC(=O)CCN(C)C)cc3c(=O)c3cc(NC(=O)CCN(C)C)ccc32)cc(OC)c1`, which IC50 (K562 [2]) is on record?
Its IC50 is 4.7 µM.

How did the IC50 (HT-29) turn out when `COc1cc(-c2nc(Cn3cc(CN4C(=O)c5ccccc5C4=O)nn3)cc3c2[nH]c2ccccc23)cc(OC)c1OC` was run?
Its IC50 is 5.79 µM.

`COc1cc(O)cc2ccc3cccc(O)c3c12` [MOSCATIN] was tested. Which IC50 (HL-60 [6]) did it give?
The IC50 was 19.2 µM.

For `N#CC1=C(N)Oc2ccc3ccccc3c2C1c1ccc(Br)cc1` (centres undefined), which IC50 (MDA-MB-231) is on record?
Its IC50 is 6.1 µM.

`Cc1cc2ncn(CCCCn3c4ccccc4c4ccccc43)c2cc1C` was tested. Which IC50 (A549) did it give?
The IC50 was 19.4 µM.

How did the IC50 (Bel-7402 [7]) turn out when `CCOC(=O)c1cc2c3ccccc3n(Cc3c(F)c(F)c(F)c(F)c3F)c2cn1` was run?
The IC50 was 9 µM.

`O=C(O)c1cc(O)c2c(c1)C(=O)c1c(O)cccc1C2=O` was tested. Which IC50 (HepG2 [8]) did it give?
The IC50 was 16.3 µM.

With `CCn1c2cc(OC)ccc2c2ccnc(C)c21` as the compound, how does the IC50 (HeLa) read?
Its IC50 is 17 µM.

`Clc1ccc(-c2nc(Cn3cc(COc4ccc(Br)cc4)nn3)cc3c2[nH]c2ccccc23)cc1` was tested. Which IC50 (HT-29) did it give?
The IC50 was 15.6 µM.

How did the IC50 (HL-60 [3]) turn out when `c1ccc2c(c1)c1ccccc1n2CCCCCn1ccnc1` was run?
Its IC50 is 14.4 µM.

Which IC50 (MDA-MB-231) does the source give for `CC(=O)Oc1cc(OC(C)=O)c2c(c1)C(=O)c1cc(C(=O)O)cc(OC(C)=O)c1C2=O` here?
Its IC50 is 8.1 µM.

How did the IC50 (BGC-823) turn out when `CC(C)=CCc1c(O)cc2oc3cc(O)ccc3c(=O)c2c1O` was run?
The IC50 was 12.1 µM.

`Cc1cc(O)c2c(c1)C(=O)c1cc(O)c(CN3CCCCC3)c(O)c1C2=O` was tested. Which IC50 (MDA-MB-231) did it give?
The IC50 was 12.3 µM.

How did the IC50 (MDA-MB-231) turn out when `Cc1cc(O)c2c(c1)C(=O)c1cc(O)c(CN3CCN(C)CC3)c(O)c1C2=O` was run?
Its IC50 is 10.4 µM.

How did the IC50 (HL-60 [1]) turn out when `CC(C)c1cc2c(cc1O)[C@@]1(C)C[C@H](O)CC(C)(C)[C@@H]1CC2` was run?
The IC50 was 17 µM.

With `Cc1cc(=O)[nH]c2c1C(=O)c1ccccc1C2=O` [MARCANIN A] as the compound, how does the IC50 (Bel-7402 [9]) read?
Its IC50 is 9.54 µM.

For `N#CC1=C(N)Oc2c(ccc3ccccc23)C1c1cccc([N+](=O)[O-])c1` (centres undefined), which IC50 (MDA-MB-231) is on record?
Its IC50 is 18.1 µM.

For `CC(C)=CCC/C(C)=C/Cc1c(O)ccc2oc3cc(O)cc(O)c3c(=O)c12`, which IC50 (KB) is on record?
The IC50 was 14.5 µM.

With `O=c1c2ccc(O)c(O)c2oc2cccc(O)c12` as the compound, how does the IC50 (BGC-823) read?
Its IC50 is 10.1 µM.

`O=c1c2ccc(O)cc2oc2cc(O)ccc12` was tested. Which IC50 (BGC-823) did it give?
The IC50 was 12.9 µM.

For `CCN(CC)CCCC(C)Nc1c2ccc(Cl)cc2nc2ccc(OC)cc12` (centres undefined) [QUINACRINE], which IC50 (MCF7 [10]) is on record?
The IC50 was 7.5 µM.

`N#CC1=C(N)Oc2c(ccc3ccccc23)C1c1ccc([N+](=O)[O-])cc1` (centres undefined) was tested. Which IC50 (KB) did it give?
Its IC50 is 20 µM.

`CC(C)=CCC/C(C)=C/Cc1c(O)c(O)cc2oc3cc(O)c(CC=C(C)C)c(O)c3c(=O)c12` [NORCOWANIN] was tested. Which IC50 (KB) did it give?
Its IC50 is 10.4 µM.

`COc1c(O)cc2oc3cc(O)c(C/C=C(/C)CO)c(O)c3c(=O)c2c1C/C=C(\C)CCC=C(C)C` [COWANOL] was tested. Which IC50 (KB) did it give?
Its IC50 is 12 µM.

Which IC50 (KB) does the source give for `COc1cc2oc3cc(O)c(OC)c(CC=C(C)C)c3c(=O)c2c(O)c1C/C=C(/C)CO` here?
Its IC50 is 15.5 µM.

`COC1=CC(=O)c2c(ccc3cc(O)ccc23)C1=O` was tested. Which IC50 (K562 [11]) did it give?
Its IC50 is 13.8 µM.

Which IC50 (HepG2 [12]) does the source give for `COc1ccc2c3ccnc(C)c3n(C)c2c1` here?
Its IC50 is 16 µM.

`CCOC(=O)C(C)(C)Oc1cc(O)c2c(c1)C(=O)c1cc(C)cc(O)c1C2=O` was tested. Which IC50 (MDA-MB-231) did it give?
The IC50 was 7.72 µM.

Which IC50 (HepG2 [13]) does the source give for `c1ccc2nc3ccccc3nc2c1` [PHENAZINE] here?
The IC50 was 7.8 µM.

`COC1=CC(=O)C[C@@]2(OC)Oc3ccccc3C[C@@]12O` was tested. Which IC50 (HL-60 [1]) did it give?
Its IC50 is 4.08 µM.

`Cc1cc(O)c2c(c1)C(=O)c1cc(OCCN3CCOCC3)cc(O)c1C2=O` was tested. Which IC50 (MDA-MB-231) did it give?
The IC50 was 4.24 µM.

How did the IC50 (K562 [2]) turn out when `CC(C)c1cc2c(cc1O)[C@@]1(C)CCCC(C)(C)[C@@H]1C(=O)C2` was run?
The IC50 was 15.9 µM.

How did the IC50 (HeLa) turn out when `CCOC(=O)c1cc2c3ccccc3n(Cc3ccccc3)c2cn1` was run?
The IC50 was 13 µM.

How did the IC50 (K562 [2]) turn out when `C=CCn1c2c(c3ccccc31)CCC(CN(C)C)C2=O` (centres undefined) was run?
Its IC50 is 3.29 µM.

For `N#CC1=C(N)Oc2c(ccc3ccccc23)C1c1ccc(Cl)cc1` (centres undefined), which IC50 (KB) is on record?
The IC50 was 14.7 µM.

`c1ccc2c(c1)ncn2CCCCCn1c2ccccc2c2ccccc21` was tested. Which IC50 (HL-60 [3]) did it give?
Its IC50 is 14.1 µM.
